# Results taken from US20240254109A1, “SALT CONTAINING PIPERAZINE POLYCYCLIC DERIVATIVE, CRYSTAL FORM THEREOF, PREPARATION METHOD THEREFOR, AND USE THEREOF” (Shanghai Hansoh Biomedical Co., Ltd., priority 2021, published 2024).
# How the values were obtained:
# [1] = Pharmacokinetic assay in Balb/c mice (plasma and brain tissue); format: in vivo; conditions: p.o. 5 mg/kg
# Experimental: (III). Pharmacokinetic Assay in Balb/c Mice
# Balb/c mice were used as test animals. The pharmacokinetic behavior in mouse body (plasma and brain tissue) of the compounds of Examples of the present invention was studied at an oral administration dose of 5 mg/kg.
# Male Balb/c mice (12 mice per group), purchased from Shanghai Jiesijie Laboratory Animal Co., LTD, with Certificate No.: SCXK (Shanghai) 2013-0006 N0.311620400001794.
# The test compound was dissolved in 0.5% CMC-Na (1% Tween80) by sonication to formulate a clear solution or homogeneous suspension.
# After an overnight fast, male Balb/c mice (12 mice per group) were administered p.o. with the test compound at an administration dose of 5 mg/kg and an administration volume of 10 mL/kg.
# 0.2 mL of blood was taken from the heart of the mouse before administration and at 1, 2, 4, 8 and 24 hours after administration, and the mice were sacrificed with CO2. The samples were stored in EDTA-K2 tubes, and centrifuged for 6 minutes at 4° C., 6000 rpm to separate the plasma. The plasma samples were stored at −80° C. Whole brain tissue was taken out, weighed, placed in a 2 mL centrifuge tube, and stored at −80° C.
# 1) 160 μL of acetonitrile was added to 40 μL of the plasma sample for precipitation, and then the mixture was centrifuged for 5 to 20 minutes at 3500×g.
# 2) 90 μL of acetonitrile containing internal standard (100 ng/mL) was added to 30 μL of the plasma and brain homogenate sample for precipitation, and then the mixture was centrifuged for 8 minutes at 13000 rpm.
# 3) 70 μL of water was added to 70 μL of the treated supernatant and mixed by vortex for 10 minutes. 20 μL of the supernatant was taken to analyze the concentration of the test compound by LC/MS/MS. LC/MS/MS analytical instrument: AB Sciex API 4000 Qtrap.
# • Liquid chromatography condition: Shimadzu LC-20AD pump • Chromatographic column: Agilent ZORBAX XDB-C18 (50×2.1 mm, […]); Mobile phase: Eluent A was 0.1% formic acid in water, and Eluent B was acetonitrile • Flow rate: 0.4 mL/min • Elution time: 0-4.0 minutes, the eluent is as follows:
# The main parameters of pharmacokinetics were calculated by WinNonlin 6.1.
# [2] = Stability study of salt (5 days and 10 days, HPLC related substances); format: physicochemical
# Experimental: 2.1.3 Stability Study of Salt
# Hydrochloride and p-toluenesulfonate of N-(trans-3-(2-(4-(2,3-dichlorophenyl)piperazin-1-yl)ethyl)cyclobutyl)oxazole-2-carboxamide were weighed about 1 mg, respectively, and then placed under light (5000 lux), high temperature (60° C.), high humidity (92.50 RH), high temperature and high humidity (50° C. and 75% RH) for 5 days and 10 days, then a diluent DMSO was added to prepare a solution with salt concentration of about 1 mg/mL.
# The chromatographic peak area normalization method was used to calculate the changes of related substances.
# [3] = Solid stability experiment of crystal form of salt; format: physicochemical; conditions: for Maximum single impurity increase % / Total impurity increase %: listed as Crystal form B of p-toluenesulfonate
# Experimental: 4. Solid Stability Experiment
# The physicochemical stability of crystal form of salt of compound N-(trans-3-(2-(4-(2,3-dichlorophenyl)piperazin-1-yl)ethyl)cyclobutyl)oxazole-2-carboxamide under the conditions of light 50001×, high temperature 60° C., high humidity 92.5% RH and high temperature and high humidity 50° C. 75% RH was investigated, which provided a basis for crystal form screening and compound crystal form storage.
# About 1 mg of different crystal forms of salt were taken and placed under the conditions of light 50001×, high temperature 60° C., high humidity 92.5% RH, high temperature and high humidity 50° C. 75% RH for 5 days and 10 days. The salt content was determined by HPLC and external standard method, and the change of relevant substances was calculated by chromatographic peak area normalization method.
# [4] = GWGS-5 d (high temperature and high humidity)
# [5] = GWGS-10 d (high temperature and high humidity)
smiles,measurement,setting,value
"O=C(N[C@H]1C[C@H](CCN2CCN(c3cccc(Cl)c3Cl)CC2)C1)C1(O)CC1 [Example 6A, N-(Trans-3-(2-(4-(2,3-dichlorophenyl)piperazin-1-yl)ethyl)cyclobutyl)-1-hydroxycyclopropane-1-carboxamide]",Peak time tmax,[1]; Brain,1 h
same,Peak time tmax,[1]; Plasma,0.5 h
"O=C(N[C@H]1C[C@H](CCN2CCN(c3cccc(Cl)c3Cl)CC2)C1)c1nccs1 [Example 7A, N-(Trans-3-(2-(4-(2,3-dichlorophenyl)piperazin-1-yl)ethyl)cyclobutyl)thiazole-2-carboxamide]",Peak time tmax,[1]; Brain,1 h
same,Peak time tmax,[1]; Plasma,1 h
"CCN(C)C(=O)NC1CC(CCN2CCN(c3cccc4sccc34)CC2)C1 (stereo not shown) [Example 24, 3-(3-(2-(4-(Benzo[b]thiophen-4-yl)piperazin-1-yl)ethyl)cyclobutyl)-1-ethyl-1-methylurea]",Peak time tmax,[1]; Brain,1 h
same,Peak time tmax,[1]; Plasma,0.5 h
"O=C(N[C@H]1C[C@H](CCN2CCN(c3cccc(Cl)c3Cl)CC2)C1)c1ncco1 [p-toluenesulfonate, N-(trans-3-(2-(4-(2,3-dichlorophenyl)piperazin-1-yl)ethyl)cyclobutyl)oxazole-2-carboxamide]",RRT 0.190 Area %,[2]; 0 d,0.317%
same,RRT 0.210 Area %,[2]; 0 d,0.073%
same,RRT 1.000 Area %,[2]; 0 d,99.217%
same,RRT 1.050 Area %,[2]; 0 d,0.149%
same,RRT 1.190 Area %,[2]; 0 d,0.178%
same,RRT 1.540 Area %,[2]; 0 d,0.067%
same,total Area % (related substances),[2]; 0 d,0.783%
same,RRT 0.190 Area %,[2]; GS-5 d (high humidity),0.213%
same,RRT 0.210 Area %,[2]; GS-5 d (high humidity),0.074%
same,RRT 1.000 Area %,[2]; GS-5 d (high humidity),99.310%
same,RRT 1.050 Area %,[2]; GS-5 d (high humidity),0.145%
same,RRT 1.190 Area %,[2]; GS-5 d (high humidity),0.177%
same,RRT 1.540 Area %,[2]; GS-5 d (high humidity),0.080%
same,total Area % (related substances),[2]; GS-5 d (high humidity),0.690%
same,RRT 0.190 Area %,[2]; GS-10 d (high humidity),0.233%
same,RRT 0.210 Area %,[2]; GS-10 d (high humidity),0.075%
same,RRT 1.000 Area %,[2]; GS-10 d (high humidity),99.298%
same,RRT 1.050 Area %,[2]; GS-10 d (high humidity),0.143%
same,RRT 1.190 Area %,[2]; GS-10 d (high humidity),0.180%
same,RRT 1.540 Area %,[2]; GS-10 d (high humidity),0.071%
same,total Area % (related substances),[2]; GS-10 d (high humidity),0.702%
same,RRT 0.190 Area %,[2]; GW-5 d (high temperature),0.163%
same,RRT 0.210 Area %,[2]; GW-5 d (high temperature),0.072%
same,RRT 1.000 Area %,[2]; GW-5 d (high temperature),99.400%
same,RRT 1.050 Area %,[2]; GW-5 d (high temperature),0.121%
same,RRT 1.190 Area %,[2]; GW-5 d (high temperature),0.175%
same,RRT 1.540 Area %,[2]; GW-5 d (high temperature),0.068%
same,total Area % (related substances),[2]; GW-5 d (high temperature),0.600%
same,RRT 0.190 Area %,[2]; GW-10 d (high temperature),0.224%
same,RRT 0.210 Area %,[2]; GW-10 d (high temperature),0.075%
same,RRT 1.000 Area %,[2]; GW-10 d (high temperature),99.319%
same,RRT 1.050 Area %,[2]; GW-10 d (high temperature),0.131%
same,RRT 1.190 Area %,[2]; GW-10 d (high temperature),0.178%
same,RRT 1.540 Area %,[2]; GW-10 d (high temperature),0.073%
same,total Area % (related substances),[2]; GW-10 d (high temperature),0.681%
same,RRT 0.190 Area %,[2]; [4],0.348%
same,RRT 0.210 Area %,[2]; [4],0.072%
same,RRT 1.000 Area %,[2]; [4],99.204%
same,RRT 1.050 Area %,[2]; [4],0.137%
same,RRT 1.190 Area %,[2]; [4],0.170%
same,RRT 1.540 Area %,[2]; [4],0.070%
same,total Area % (related substances),[2]; [4],0.796%
same,RRT 0.190 Area %,[2]; [5],0.319%
same,RRT 0.210 Area %,[2]; [5],0.074%
same,RRT 1.000 Area %,[2]; [5],99.246%
same,RRT 1.050 Area %,[2]; [5],0.128%
same,RRT 1.190 Area %,[2]; [5],0.168%
same,RRT 1.540 Area %,[2]; [5],0.065%
same,total Area % (related substances),[2]; [5],0.754%
same,RRT 0.190 Area %,[2]; GZ-5 d (light),0.266%
same,RRT 0.210 Area %,[2]; GZ-5 d (light),0.072%
same,RRT 0.890 Area %,[2]; GZ-5 d (light),0.130%
same,RRT 1.000 Area %,[2]; GZ-5 d (light),99.184%
same,RRT 1.050 Area %,[2]; GZ-5 d (light),0.101%
same,RRT 1.190 Area %,[2]; GZ-5 d (light),0.171%
same,RRT 1.540 Area %,[2]; GZ-5 d (light),0.075%
same,total Area % (related substances),[2]; GZ-5 d (light),0.816%
same,RRT 0.190 Area %,[2]; GZ-10 d (light),0.324%
same,RRT 0.210 Area %,[2]; GZ-10 d (light),0.073%
same,RRT 0.890 Area %,[2]; GZ-10 d (light),0.232%
same,RRT 1.000 Area %,[2]; GZ-10 d (light),99.028%
same,RRT 1.050 Area %,[2]; GZ-10 d (light),0.115%
same,RRT 1.190 Area %,[2]; GZ-10 d (light),0.162%
same,RRT 1.540 Area %,[2]; GZ-10 d (light),0.066%
same,total Area % (related substances),[2]; GZ-10 d (light),0.972%
same,changes in impurities,"[2]; high temperature, high humidity, and high temperature and high humidity, 5 and 10 days",no significant changes in impurities
"O=C(N[C@H]1C[C@H](CCN2CCN(c3cccc(Cl)c3Cl)CC2)C1)c1ncco1 [crystal form B of p-toluenesulfonate, N-(trans-3-(2-(4-(2,3-dichlorophenyl)piperazin-1-yl)ethyl)cyclobutyl)oxazole-2-carboxamide]",Maximum single impurity increase %,"[3]; High humidity, 5 Days",<0.02%
same,Total impurity increase %,"[3]; High humidity, 5 Days",<0.02%
same,Total impurity increase %,"[3]; High temperature, 10 Days",<0.02%
same,Maximum single impurity increase %,"[3]; Light, 5 Days",0.13%
same,Total impurity increase %,"[3]; Light, 5 Days",0.03%
same,Maximum single impurity increase %,"[3]; Light, 10 Days",0.13%
same,Total impurity increase %,"[3]; Light, 10 Days",0.19%
same,single impurity,[3]; light conditions,increases significantly
same,crystal form stability,[3]; other conditions than light,stable
"O=C(NC1CC(CCN2CCN(c3cccc(Cl)c3Cl)CC2)C1)C1(O)CC1 (stereo not shown) [Example 6, N-(3-(2-(4-(2,3-Dichlorophenyl)piperazin-1-yl)ethyl)cyclobutyl)-1-hydroxycyclopropane-1-carboxamide]",Peak time tmax,[1]; Brain,1 h
same,Peak time tmax,[1]; Plasma,0.5 h
"O=C(N[C@H]1C[C@@H](CCN2CCN(c3cccc(Cl)c3Cl)CC2)C1)C1(O)CC1 [Example 6B, N-(Cis-3-(2-(4-(2,3-dichlorophenyl)piperazin-1-yl)ethyl)cyclobutyl)-1-hydroxycyclopropane-1-carboxamide]",Peak time tmax,[1]; Brain,1 h
same,Peak time tmax,[1]; Plasma,0.5 h
